From PubChem BioAssay AID1963443 (Molecular Pharmacology Branch, DTP, NCI, 2024)
One block for each molecule: values may come before it.

Test system: MDA-MB-231 complex spheroids, growth inhibition
Assay: Anticancer human tumor MDA-MB-231 cell line growth inhibition [Asc];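 also: spheroids exposed to compounds for 7 days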
Details: for viability, T/C: stronger effect = lower value
Description: Multicellular complex tumor spheroid response to apoptosis pathway targeting inhibitors Alrizomadlin, Pelcitoclax, and Dasminapant in combination with a variety of drugs and investigational agents in selected tumor cell lines
The MDM2 inhibitor alrizomadlin, the Bcl-2/Bcl-xL inhibitor pelcitoclax, and the IAPs inhibitor dasminapant were evaluated both individually and in combination with standard of care and investigational anticancer small molecules within a complex spheroid model of solid tumors. . Complex spheroids include a stromal component modeled by human endothelial cells (HUVEC) and fibroblasts modeled by human mesenchymal stem cells (MSCs). The concentration ranges selected for each drug and investigational agent were based upon clinically achievable concentrations if the clinical Cmax of the agent was known.
Compounds. The drugs and investigational agents: alrizomadlin (APG-115; NSC831270), pelcitoclax (APG-1252; NSC835773), dasminapant (APG-1387;NSC834197), TAK-243 (NSC785004), copanlisib (NSC809693), olaparib (NSC753686), talazoparib (NSC767125), cobimetinib (NSC 768068), eltanexor (KPT-8602, NSC 794443), abemaciclib (NSC 768073), sotorasib (NSC818433), adagrasib (NSC 831453), MRTX-1133 (NSC 836407), Iadademestat (ORY1001, NSC 806812), and RMC-4630 (NSC839698), were obtained from the NCI Developmental Therapeutics Program Chemical Repository. The FDA-approved anticancer drug set is available from the Developmental Therapeutics Program at https://dtp.cancer.gov/organization/dscb/obtaining/available plates.htm. […] The stock solutions were prepared in dimethyl sulfoxide (DMSO, Sigma-Aldrich, St. Louis, MO, cat. D2650) at 800-fold the tested concentration and stored at -70 degrees C prior to their use. All drugs and investigational agents were tested over a range starting from a high concentration at or near the clinical Cmax and decreasing in half-log increments. If the clinical Cmax for an agent had not been determined, the highest concentration tested was 10 microM.
The patient-derived cancer (PDC) cell lines include five colon adenocarcinomas: 186277-243-T-J2-PDC, 616215-338-R-J1-PDC, 439559-082-T-J2-PDC, 463943-066-T-J2-PDC, and 519858-162-T-J1-PDC; three pancreatic carcinomas: 323965-272-R-J2-PDC, 521955-158-R6-J3-PDC, and 521955-158-R2-J5-PDC; two uterine sarcomas: 327498-152-R-J2-PDC and 993429-296-R-J1-PDC; two rhabdomyosarcomas: 755483-174-R-J1-PDC and 772245-204-R-J1-PDC; two soft tissue sarcomas: 126254-015-R-J1-PDC and 494315-158-R-J1-PDC; two malignant fibrous histiocytomas: 317291-083-R-J1-PDC and 596521-263-R-J1-PDC; two breast carcinomas: 171881-019-R-J1-PDC and 885512-296-R-J2-PDC; and one ovarian carcinoma: 6556581-035-R-J-PDC were obtained from the NCI PDMR, (https://pdmr.cancer.gov). The established cell lines HSSY-2 synovial sarcoma (RRID:CVCL 8719), SYO-1 synovial sarcoma (RRID:CVCL_7146), MPNST malignant peripheral neural sheath tumor were obtained from the Sloan Kettering Institute. The following established cell lines were purchased from the American Type Culture Collection (ATCC, Manassas, VA), Sor the received from the NCI repository:, PANC-1 pancreatic carcinoma (CRL-1469, RRID:CVCL_0480), OVCAR-5 ovarian carcinoma (RRID:CVCL_1628), OVCAR-8 ovarian carcinoma (RRID:CVCL_1629), , MCF-7 breast carcinoma (CRL-12584, RRID:CVCL_0031), MDA-MB-231 breast carcinoma (CRL-12532, RRID:CVCL_0062), NCI-H1876 small cell lung carcinoma (CRL-5902, RRID:CVCL_1503), NCI-H510A small cell lung carcinoma (HTB-184, RRID:CVCL_1565), NCI-H1417 (CRL-5869, RRID:CVCL_1469), and NCI-H196 small cell lung carcinoma (CRL-5823, RRID:CVCL_1509). Dr. Peter Houghton (Greehey Children's Cancer Research Institute, University of Texas Health Science Center, San Antonio, TX) provided Rh-18 rhabdomyosarcoma (RRID:CVCL_1659). Pooled donor human umbilical vein endothelial cells (HUVEC, Lonza, cat. CC-2519) and human mesenchymal stem cells (hMSC, Lonza, cat. PT-2501) were purchased from Lonza (Walkersville, MD).
Cell Culture. […]

[1] = curve of first compound, second compound 0.03 µM
[2] = curve of first compound, second compound 0.0949 µM
[3] = curve of first compound, second compound 0.3 µM
[4] = curve of first compound, second compound 0.949 µM
[5] = curve of first compound, second compound 3 µM
[6] = second compound 0.03 µM, first compound 0.00316 µM
[7] = second compound 0.03 µM, first compound 0.01 µM
[8] = second compound 0.03 µM, first compound 0.0316 µM
[9] = second compound 0.03 µM, first compound 0.1 µM
[10] = second compound 0.0949 µM, first compound 0.00316 µM
[11] = second compound 0.0949 µM, first compound 0.01 µM
[12] = second compound 0.0949 µM, first compound 0.0316 µM
[13] = second compound 0.0949 µM, first compound 0.1 µM
[14] = second compound 0.3 µM, first compound 0.00316 µM
[15] = second compound 0.3 µM, first compound 0.01 µM
[16] = second compound 0.3 µM, first compound 0.0316 µM
[17] = second compound 0.3 µM, first compound 0.1 µM
[18] = second compound 0.949 µM, first compound 0.00316 µM
[19] = second compound 0.949 µM, first compound 0.01 µM
[20] = second compound 0.949 µM, first compound 0.0316 µM
[21] = second compound 0.949 µM, first compound 0.1 µM
[22] = second compound 3 µM, first compound 0.00316 µM
[23] = second compound 3 µM, first compound 0.01 µM
[24] = second compound 3 µM, first compound 0.0316 µM
[25] = second compound 3 µM, first compound 0.1 µM
[26] = second compound 0.03 µM, first compound 0.316 µM
[27] = second compound 0.03 µM, first compound 1 µM
[28] = second compound 0.0949 µM, first compound 0.316 µM
[29] = second compound 0.0949 µM, first compound 1 µM
[30] = second compound 0.3 µM, first compound 0.316 µM
[31] = second compound 0.3 µM, first compound 1 µM
[32] = second compound 0.949 µM, first compound 0.316 µM
[33] = second compound 0.949 µM, first compound 1 µM
[34] = second compound 3 µM, first compound 0.316 µM
[35] = second compound 3 µM, first compound 1 µM

IC50 (compound alone, run of 10/11/2022): > 10000 nM
SMILES: Cc1c(S(C)(=O)=O)c(-c2cc(F)cc(N3CCN(c4ccc(NS(=O)(=O)c5ccc(NC(CCN6CCC(C(=O)OCCCP(=O)(O)O)CC6)CSc6ccccc6)c(S(=O)(=O)C(F)(F)F)c5)cc4)CC3)c2)c(-c2ccc(Cl)cc2)n1C(C)C (stereo unspecified)
viability, T/C (compound 0.1 µM): 96.4% [middle of 14 runs]
viability, T/C (compound 0.316 µM): 105% [middle of 14 runs]
viability, T/C (compound 1 µM): 98.3% [middle of 14 runs]
viability, T/C (compound 3.16 µM): 98.5% [middle of 14 runs]
viability, T/C (compound 10 µM): 95% [middle of 14 runs]

IC50 [1]: > 100 nM
IC50 [2]: > 100 nM
IC50 [3]: > 100 nM
IC50 [4]: > 100 nM
IC50 [5]: > 100 nM
SMILES: Cn1ncnc1[C@H]1c2n[nH]c(=O)c3cc(F)cc(c23)N[C@@H]1c1ccc(F)cc1 + CCN1C(C(=O)NC23CCC(C(=O)O)(CC2)CC3)C(c2cccc(Cl)c2F)C2(C(=O)Nc3cc(Cl)ccc32)C12CCCCC2
viability, T/C (second compound 0.03 µM, first compound 0.000316 µM): 101%
viability, T/C (second compound 0.03 µM, first compound 0.001 µM): 96.3%
viability, T/C [6]: 90.4%
viability, T/C [7]: 96.2%
viability, T/C [8]: 85%
viability, T/C [9]: 86%
viability, T/C (second compound 0.0949 µM, first compound 0.000316 µM): 112%
viability, T/C (second compound 0.0949 µM, first compound 0.001 µM): 101%
viability, T/C [10]: 93.6%
viability, T/C [11]: 95.9%
viability, T/C [12]: 90.2%
viability, T/C [13]: 88.4%
viability, T/C (second compound 0.3 µM, first compound 0.000316 µM): 110%
viability, T/C (second compound 0.3 µM, first compound 0.001 µM): 110%
viability, T/C [14]: 98.5%
viability, T/C [15]: 102%
viability, T/C [16]: 89.8%
viability, T/C [17]: 85.4%
viability, T/C (second compound 0.949 µM, first compound 0.000316 µM): 108%
viability, T/C (second compound 0.949 µM, first compound 0.001 µM): 109%
viability, T/C [18]: 102%
viability, T/C [19]: 97.8%
viability, T/C [20]: 93.6%
viability, T/C [21]: 91.8%
viability, T/C (second compound 3 µM, first compound 0.000316 µM): 100%
viability, T/C (second compound 3 µM, first compound 0.001 µM): 99.4%
viability, T/C [22]: 94.4%
viability, T/C [23]: 91.8%
viability, T/C [24]: 82%
viability, T/C [25]: 87.8%

IC50 [1]: > 10000 nM
IC50 [2]: > 10000 nM
IC50 [3]: > 10000 nM
IC50 [4]: > 10000 nM
IC50 [5]: > 10000 nM
SMILES: O=C(c1cc(Cc2n[nH]c(=O)c3ccccc23)ccc1F)N1CCN(C(=O)C2CC2)CC1 + CCN1C(C(=O)NC23CCC(C(=O)O)(CC2)CC3)C(c2cccc(Cl)c2F)C2(C(=O)Nc3cc(Cl)ccc32)C12CCCCC2
viability, T/C [8]: 99.1%
viability, T/C [9]: 93.9%
viability, T/C [26]: 93.8%
viability, T/C [27]: 88.2%
viability, T/C (second compound 0.03 µM, first compound 3.16 µM): 88.8%
viability, T/C (second compound 0.03 µM, first compound 10 µM): 73.8%
viability, T/C [12]: 106%
viability, T/C [13]: 104%
viability, T/C [28]: 98.8%
viability, T/C [29]: 99.5%
viability, T/C (second compound 0.0949 µM, first compound 3.16 µM): 90.2%
viability, T/C (second compound 0.0949 µM, first compound 10 µM): 77.3%
viability, T/C [16]: 103%
viability, T/C [17]: 103%
viability, T/C [30]: 100%
viability, T/C [31]: 97.5%
viability, T/C (second compound 0.3 µM, first compound 3.16 µM): 93%
viability, T/C (second compound 0.3 µM, first compound 10 µM): 80.3%
viability, T/C [20]: 102%
viability, T/C [21]: 107%
viability, T/C [32]: 103%
viability, T/C [33]: 101%
viability, T/C (second compound 0.949 µM, first compound 3.16 µM): 97.9%
viability, T/C (second compound 0.949 µM, first compound 10 µM): 80.7%
viability, T/C [24]: 99.1%
viability, T/C [25]: 103%
viability, T/C [34]: 94.8%
viability, T/C [35]: 93.4%
viability, T/C (second compound 3 µM, first compound 3.16 µM): 86.7%
viability, T/C (second compound 3 µM, first compound 10 µM): 77.8%

IC50 [1]: 56.2 nM
IC50 [2]: 56.9 nM
IC50 [3]: 45.2 nM
IC50 [4]: 36 nM
IC50 [5]: 14.5 nM
SMILES: O=C(c1ccc(F)c(F)c1Nc1ccc(I)cc1F)N1CC(O)([C@@H]2CCCCN2)C1 + CCN1C(C(=O)NC23CCC(C(=O)O)(CC2)CC3)C(c2cccc(Cl)c2F)C2(C(=O)Nc3cc(Cl)ccc32)C12CCCCC2
viability, T/C [6]: 81.9%
viability, T/C [7]: 65.3%
viability, T/C [8]: 53.4%
viability, T/C [9]: 47.6%
viability, T/C [26]: 30.3%
viability, T/C [27]: 5.13%
viability, T/C [10]: 84.8%
viability, T/C [11]: 64.5%
viability, T/C [12]: 54.1%
viability, T/C [13]: 47.6%
viability, T/C [28]: 30.6%
viability, T/C [29]: 4.62%
viability, T/C [14]: 95.7%
viability, T/C [15]: 63.6%
viability, T/C [16]: 53.2%
viability, T/C [17]: 44.4%
viability, T/C [30]: 27.3%
viability, T/C [31]: 4.93%
viability, T/C [18]: 86%
viability, T/C [19]: 58.5%
viability, T/C [20]: 52.3%
viability, T/C [21]: 40.3%
viability, T/C [32]: 22.6%
viability, T/C [33]: 4.93%
viability, T/C [22]: 70.9%
viability, T/C [23]: 48.6%
viability, T/C [24]: 43%
viability, T/C [25]: 31.7%
viability, T/C [34]: 11.5%
viability, T/C [35]: 4.76%
